Source: PubChem BioAssay AID330 (DTP/NCI, 2004)
Values joined by “and” are separate entries in the source; they are usually repeats but may differ in a detail not shown here. Equal entries are not always repeated. Inconclusive results and toxic doses are left out.

Test system: P388 leukemia ip, CD2F1 mice, survival T/C
Assay: NCI In Vivo Anticancer Drug Screen. Data for tumor model P388 Leukemia (intraperitoneal) in CD2F1 (CDF1) mice
Settings: endpoint: median survival time, higher = longer survival
Outline: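 Mice carrying the transplanted tumor received test compound or vehicle. Survival was recorded in each group, and the value is the treated-group measurement divided by that of the vehicle-treated control group.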

[1] = dose: 50.0 mg/kg/injection, schedule: Q01DX009 (ip), vehicle: saline
[2] = dose: 100.0 mg/kg/injection, schedule: Q01DX009 (ip), vehicle: saline
[3] = dose: 200.0 mg/kg/injection, schedule: Q01DX009 (ip), vehicle: saline
[4] = dose: 50.0 mg/kg/injection, schedule: Q01DX009 (ip), vehicle: saline with Tween-80
[5] = dose: 100.0 mg/kg/injection, schedule: Q01DX009 (ip), vehicle: saline with Tween-80
[6] = dose: 200.0 mg/kg/injection, schedule: Q01DX009 (ip), vehicle: saline with Tween-80
[7] = dose: 100.0 mg/kg/injection, schedule: Q01DX001 (ip), vehicle: saline with Tween-80
[8] = dose: 200.0 mg/kg/injection, schedule: Q01DX001 (ip), vehicle: saline with Tween-80
[9] = dose: 400.0 mg/kg/injection, schedule: Q01DX001 (ip), vehicle: saline with Tween-80
[10] = dose: 25.0 mg/kg/injection, schedule: Q01DX009 (ip), vehicle: saline with Tween-80
[11] = dose: 25.0 mg/kg/injection, schedule: Q04DX003 (ip), vehicle: saline with Tween-80
[12] = dose: 100.0 mg/kg/injection, schedule: Q04DX003 (ip), vehicle: saline with Tween-80
[13] = dose: 200.0 mg/kg/injection, schedule: Q04DX003 (ip), vehicle: saline with Tween-80
[14] = dose: 400.0 mg/kg/injection, schedule: Q04DX003 (ip), vehicle: saline with Tween-80

SMILES: CCOC(=O)CC[Si](CC)(CC)CC
- T/C [1]: 104 % of control
- T/C [2]: 93 % of control
- T/C [3]: 90 % of control

SMILES: Cc1nn(-c2ccccc2)c2c1C(c1ccc([N+](=O)[O-])cc1)C(C#N)=C(N)O2 (centres undefined)
- T/C (dose: 50.0 mg/kg/injection, schedule: Q01DX009 (ip), vehicle: Klucel (hydroxypropylcellulose) (HPC)): 102 % of control
- T/C (dose: 100.0 mg/kg/injection, schedule: Q01DX009 (ip), vehicle: Klucel (hydroxypropylcellulose) (HPC)): 90 % of control
- T/C (dose: 200.0 mg/kg/injection, schedule: Q01DX009 (ip), vehicle: Klucel (hydroxypropylcellulose) (HPC)): 107 % of control

SMILES: CN(C)C(=S)SC(=S)Sc1c(Cl)c(Cl)c(Cl)c(Cl)c1Cl
- T/C [4]: 99 % of control
- T/C [5]: 100 % of control
- T/C [6]: 99 % of control

SMILES: CN1CC=C(c2ccccc2)CC1
- T/C (dose: 6.25 mg/kg/injection, schedule: Q01DX005 (ip), vehicle: saline): 97 % of control
- T/C (dose: 12.5 mg/kg/injection, schedule: Q01DX005 (ip), vehicle: saline): 99 % of control
- T/C (dose: 25.0 mg/kg/injection, schedule: Q01DX005 (ip), vehicle: saline): 101 % of control and 98 % of control

SMILES: O=[N+]([O-])c1ccc(N/N=C(\CBr)c2ccccc2)c([N+](=O)[O-])c1
- T/C [7]: 91 % of control
- T/C [8]: 87 % of control
- T/C [9]: 87 % of control

SMILES: CC1=C(C(=O)N2Cc3cc4ccccc4nc3C2)COC1=O
- T/C (dose: 50.0 mg/kg/injection, schedule: Q01DX001 (ip), vehicle: saline with Tween-80): 99 % of control
- T/C [7]: 90 % of control
- T/C [8]: 95 % of control
- T/C [9]: 90 % of control

SMILES: CC12CCC3C(CCC4(O)C=CCCC34C=O)C1(O)CC(O)C2c1ccc(=O)oc1 (centres undefined)
- T/C [10]: 97 % of control
- T/C [4]: 91 % of control
- T/C [5]: 91 % of control
- T/C [6]: 91 % of control

SMILES: Clc1[nH]nc2ccccc12
- T/C (dose: 6.25 mg/kg/injection, schedule: Q01DX009 (ip), vehicle: saline with Tween-80): 95 % of control
- T/C (dose: 12.5 mg/kg/injection, schedule: Q01DX009 (ip), vehicle: saline with Tween-80): 100 % of control
- T/C (dose: 12.5 mg/kg/injection, schedule: Q04DX003 (ip), vehicle: saline with Tween-80): 100 % of control
- T/C [10]: 86 % of control
- T/C [11]: 100 % of control
- T/C (dose: 50.0 mg/kg/injection, schedule: Q04DX003 (ip), vehicle: saline with Tween-80): 100 % of control

SMILES: CC(CCO)CCCO (centres undefined)
- T/C (dose: 60.0 mg/kg/injection, schedule: Q01DX005 (ip), vehicle: saline with Tween-80): 97 % of control
- T/C (dose: 120.0 mg/kg/injection, schedule: Q01DX005 (ip), vehicle: saline with Tween-80): 95 % of control
- T/C (dose: 240.0 mg/kg/injection, schedule: Q01DX005 (ip), vehicle: saline with Tween-80): 101 % of control

SMILES: C(/C=C/c1ccccc1)=C1SCCCS1
- T/C [12]: 94 % of control
- T/C [13]: 103 % of control
- T/C [14]: 90 % of control

SMILES: CCOP(=O)(OCC)C1CCCN2CCc3cc(OC)c(OC)cc3C12 (centres undefined)
- T/C [1]: 91 % of control
- T/C [2]: 98 % of control
- T/C [3]: 95 % of control

SMILES: CC(=O)Nc1ccc(N=NN(C)Cc2ccccc2)cc1
- T/C (dose: 25.0 mg/kg/injection, schedule: Q01DX001 (ip), vehicle: Klucel (hydroxypropylcellulose) (HPC)): 102 % of control
- T/C (dose: 50.0 mg/kg/injection, schedule: Q01DX001 (ip), vehicle: Klucel (hydroxypropylcellulose) (HPC)): 92 % of control

SMILES: NCCC1CCCCN1 (centres undefined)
- T/C (dose: 50.0 mg/kg/injection, schedule: Q01DX001 (ip), vehicle: saline): 95 % of control
- T/C (dose: 100.0 mg/kg/injection, schedule: Q01DX001 (ip), vehicle: saline): 105 % of control
- T/C (dose: 200.0 mg/kg/injection, schedule: Q01DX001 (ip), vehicle: saline): 105 % of control

SMILES: CC1(CNC(=O)C(=O)NCC2(C)CO2)CO1 (centres undefined)
- T/C (dose: 6.25 mg/kg/injection, schedule: Q04DX003 (ip), vehicle: saline with Tween-80): 90 % of control
- T/C (dose: 17.5 mg/kg/injection, schedule: Q04DX003 (ip), vehicle: saline with Tween-80): 109 % of control
- T/C [10]: 150 % of control
- T/C [11]: 122 % of control
- T/C [4]: 172 % of control
- T/C [5]: 186 % of control
- T/C [12]: 168 % of control
- T/C (dose: 132.0 mg/kg/injection, schedule: Q04DX003 (ip), vehicle: saline with Tween-80): 172 % of control
- T/C [13]: 163 % of control and 195 % of control
- T/C (dose: 300.0 mg/kg/injection, schedule: Q04DX003 (ip), vehicle: saline with Tween-80): 195 % of control
- T/C [14]: 109 % of control
